What was measured:
human GIPR [1] = target: T1, human GIPR (Homo sapiens, UniProt P48546); assay type: cell-based; design: host or cells: COS-7; details: Emax normalized to highest concentration of endogenous ligand; Table 2
T1 sequence (P48546 22-466): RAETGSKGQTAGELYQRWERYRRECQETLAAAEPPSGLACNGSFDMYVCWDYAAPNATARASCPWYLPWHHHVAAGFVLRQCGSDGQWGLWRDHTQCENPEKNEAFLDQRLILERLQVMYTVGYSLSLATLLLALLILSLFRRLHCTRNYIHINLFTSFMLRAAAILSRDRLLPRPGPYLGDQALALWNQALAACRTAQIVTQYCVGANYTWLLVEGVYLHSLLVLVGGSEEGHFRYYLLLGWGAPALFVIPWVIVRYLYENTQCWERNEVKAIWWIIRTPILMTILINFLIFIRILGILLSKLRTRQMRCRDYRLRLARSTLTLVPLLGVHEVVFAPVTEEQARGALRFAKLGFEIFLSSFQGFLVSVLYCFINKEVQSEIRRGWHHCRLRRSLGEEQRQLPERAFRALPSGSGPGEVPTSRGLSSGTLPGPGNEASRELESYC

human SNAP-GIPR = target: T2, human SNAP-GIPR (Homo sapiens, UniProt P48546); assay type: cell-based; design: AUC ± SD: unit not given beside the values; details: for Emax ± SD (%): GIPR internalization, NA = no activity
T2 construct: host or cells: HEK293A
T2 sequence (P48546 22-466): T1 sequence (P48546 22-466)

rat GIPR = target: T3, rat GIPR (Rattus norvegicus, UniProt P43219); test: HitHunter cAMP assay in transiently transfected COS-7 cells, rat GIPR; assay type: cell-based; details: Emax normalized to highest concentration of endogenous ligand
T3 construct: expressed in transfected cells; host or cells: COS-7
T3 sequence (P43219 19-455): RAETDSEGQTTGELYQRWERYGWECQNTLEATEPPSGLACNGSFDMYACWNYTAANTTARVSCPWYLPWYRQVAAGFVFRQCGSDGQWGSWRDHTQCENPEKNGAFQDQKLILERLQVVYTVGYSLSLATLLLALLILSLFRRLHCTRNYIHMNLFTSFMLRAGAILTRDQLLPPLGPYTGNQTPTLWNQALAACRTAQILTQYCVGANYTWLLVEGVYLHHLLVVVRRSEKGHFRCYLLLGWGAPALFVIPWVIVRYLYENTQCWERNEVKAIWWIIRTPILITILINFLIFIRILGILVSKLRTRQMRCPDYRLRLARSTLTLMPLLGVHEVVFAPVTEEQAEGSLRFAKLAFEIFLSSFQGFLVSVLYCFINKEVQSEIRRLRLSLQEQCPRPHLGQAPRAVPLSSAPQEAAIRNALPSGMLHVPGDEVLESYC
Protocol: (§1) The next day the assay was initiated by washing with HEPES buffered saline (HBS) and followed by an incubation step with assay buffer (HBS added 1 mM isobutyl-1-methylxanthine (IBMX)) for 30 min at 37° C. The ligands were then added and incubated for an additional 30 min at 37° C. After ligand incubation, the HitHunter® CAMP assay (Eurofins DiscoverX, Fremont, […] USA) was carried out according to the manufacturer's instructions. Luminescence was measured by PerkinElmer™ EnVision 2014 Multilabel Reader (PerkinElmer, Waltham, MA). The potencies (EC50 values) were determined by nonlinear regression using GraphPad Prism 9 (San Diego, California, USA). Sigmoid curves were fitted logistically. The efficacies (Emax values) were determined by normalization to the highest concentration applied of the endogenous ligand for each receptor.

rat GLP-2R = target: T4, rat GLP-2R (Rattus norvegicus, UniProt Q9Z0W0); test: HitHunter cAMP assay in transiently transfected COS-7 cells, rat GLP-2R; assay type: cell-based; details: Emax normalized to highest concentration of endogenous ligand
T4 construct: expressed in transfected cells; host or cells: COS-7
T4 sequence (Q9Z0W0 1-550): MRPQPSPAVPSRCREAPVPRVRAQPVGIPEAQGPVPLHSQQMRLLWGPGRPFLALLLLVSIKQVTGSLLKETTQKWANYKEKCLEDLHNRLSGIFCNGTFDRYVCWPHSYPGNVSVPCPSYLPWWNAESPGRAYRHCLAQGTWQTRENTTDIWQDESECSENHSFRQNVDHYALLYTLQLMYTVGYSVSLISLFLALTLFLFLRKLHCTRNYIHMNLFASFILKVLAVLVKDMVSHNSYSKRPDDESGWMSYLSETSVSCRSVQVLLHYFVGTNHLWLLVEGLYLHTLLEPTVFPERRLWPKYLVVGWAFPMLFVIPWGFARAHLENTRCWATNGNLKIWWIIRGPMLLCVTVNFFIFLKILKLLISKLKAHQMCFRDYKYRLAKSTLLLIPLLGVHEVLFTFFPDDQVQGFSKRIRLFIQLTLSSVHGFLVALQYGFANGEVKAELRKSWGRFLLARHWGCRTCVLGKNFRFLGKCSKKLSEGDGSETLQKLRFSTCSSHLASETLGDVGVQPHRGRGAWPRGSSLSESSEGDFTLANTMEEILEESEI
Protocol: as §1

human GIPR [2] = target: T1, human GIPR; assay type: cell-based; design: host or cells: HEK293; details: beta-arrestin 2 recruitment; for AUC ± SD: AUC of sigmoid curves up to 100 nM; for Emax ± SD (%): normalized to highest concentration of GIP, NA = no activity
Protocol: HEK293 cells were cultured at 10% CO2 and 37° C. in DMEM-GlutaMAX™-I supplemented with 10% FBS, 180 units/mL penicillin and 45 g/mL streptomycin. These cells were transfected using PEI for the beta-arrestin recruitment assay as described in detail in (van der Velden et al., 2021).
HEK293 cells were transiently transfected with human GIPR, the donor Rluc8-Arrestin-3-Sp1 (beta-arrestin 2 recruitment), the acceptor mem-linker-citrine-SH3, and the GPCR kinase 2 (GRK2). Two days following transfection, the cells were washed with PBS and resuspended in PBS with 5 mM glucose. Then, 85 μL of the cell suspension solution was added to each well of a white 96-well plate followed by the addition of PBS with 5 μM coelenterazine-h. Following 10 min incubation, increasing concentrations of ligands were added and incubated for an additional 30 min. Luminescence was measured with the Berthold Technologies Mithras Multilabel Reader (Rluc8 at 485±40 nm and YFP at 530±25 nm). The potencies (EC50 values) were determined by nonlinear regression using GraphPad Prism 9 (San Diego, California, USA). Sigmoid curves were fitted logistically. The efficacies (Emax values) were determined by normalization to the highest concentration applied of the endogenous ligand (GIP) for the GIPR.

human GLP-2R = target: T5, human GLP-2R (Homo sapiens, UniProt O95838); test: HitHunter cAMP assay in transiently transfected COS-7 cells, human GLP-2R; assay type: cell-based; details: Emax normalized to highest concentration of endogenous ligand; Table 2;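 further: cells kept 30 min at 37 °C in buffer with 1 mM IBMX, then given ligand for another 30 min at 37 °C before cAMP readout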
T5 construct: host or cells: COS-7
T5 sequence (O95838 1-553): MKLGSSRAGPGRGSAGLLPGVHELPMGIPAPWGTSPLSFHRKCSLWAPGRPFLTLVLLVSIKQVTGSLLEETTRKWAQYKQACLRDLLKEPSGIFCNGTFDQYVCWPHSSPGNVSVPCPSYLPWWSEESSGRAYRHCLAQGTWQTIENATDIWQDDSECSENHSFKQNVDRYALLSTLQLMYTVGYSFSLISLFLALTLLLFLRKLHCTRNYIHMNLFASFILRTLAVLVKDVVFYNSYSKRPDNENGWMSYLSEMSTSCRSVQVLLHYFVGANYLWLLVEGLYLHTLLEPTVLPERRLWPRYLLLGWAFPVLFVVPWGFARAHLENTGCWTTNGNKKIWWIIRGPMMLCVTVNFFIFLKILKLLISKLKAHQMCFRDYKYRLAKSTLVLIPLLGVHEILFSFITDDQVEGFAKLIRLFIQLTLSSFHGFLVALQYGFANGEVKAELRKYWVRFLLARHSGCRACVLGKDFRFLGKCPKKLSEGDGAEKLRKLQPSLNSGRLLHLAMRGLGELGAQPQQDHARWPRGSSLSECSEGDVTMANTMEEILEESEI
Protocol: (§2) COS-7 cells were cultured at 10% CO2 and 37° C. in Dulbecco's Modified Eagle Medium (DMEM) 1885 supplemented with 10% fetal bovine serum (FBS), 2 mM glutamine, 180 units/ml penicillin, and 45 g/ml streptomycin.
The next day the assay was initiated by washing with HEPES buffered saline (HBS) and followed by an incubation step with assay buffer (HBS added 1 mM isobutyl-1-methylxanthine (IBMX)) for 30 min at 37° C. The ligands were then added and incubated for an additional 30 min at 37° C. After ligand incubation, the HitHunter® CAMP assay (Eurofins DiscoverX, Fremont, 150 USA) was carried out according to the manufacturer's instructions. Luminescence was measured by PerkinElmer™ EnVision 2014 Multilabel Reader (PerkinElmer, Waltham, MA). The potencies (EC50 values) were determined by nonlinear regression using GraphPad Prism 9 (San Diego, California, USA). Sigmoid curves were fitted logistically. The efficacies (Emax values) were determined by normalization to the highest concentration applied of the endogenous ligand for each receptor.

human GLP-1R = target: T6, human GLP-1R (Homo sapiens, UniProt P43220); test: HitHunter cAMP assay in transiently transfected COS-7 cells, human GLP-1R; assay type: cell-based; details: Emax normalized to highest concentration of endogenous ligand; Table 3
T6 construct: host or cells: COS-7
Protocol: as §1

macaque GIPR = test: HitHunter cAMP assay in transiently transfected COS-7 cells, macaque GIPR; assay type: cell-based; details: for maGIPR Efficacy (%): Emax normalized to highest concentration of the endogenous ligand, COS-7 cells; for maGIPR pEC50: cAMP, transiently transfected COS-7 cells
Protocol: as §1

[3] = tested on: bone turnover markers CTX (resorption) and P1NP (formation); test: bone turnover markers CTX and P1NP in rats after SC injection; assay type: in vivo, rat
Protocol: Sprague Dawley female rats, age 10 w (Janvier Labs, France), n=4, were fasted from 06:00 until after final blood sample. A baseline blood sample was taken just before subcutaneous administration of compound at 10:00. Compounds were dissolved in 50 mM phosphate buffer, pH 7.5+0.1% Haemaccel. Dose: Compound no. 11 4248.5 μg/kg.
Blood samples were taken at 10:00, 14:00, 18:00 and 22:00. Plasma was obtained within 20 min after blood sampling and stored at −20C.
CTX and P1NP were measured using RatLaps (CTX-I) EIA and Rat/mouse P1NP EIA (Immunidiagnosticsystems, UK) according to protocols.
Data are presented using GraphPad Prism V9.3.0 as % of baseline as mean+/−SEM and analyzed by 2-way Anova with Sidaks multiple comparisons tests or by unpaired t-test.

human GIPR [4] = target: T1, human GIPR; details: 10 nM ligand for 90 min, then 125I-GIP(1-42) labelling; FIG. 3
Protocol: as §2
The following day, the media of the cells were changed to DMEM supplemented 2% FBS and preincubated either with or without 10 nM ligand for 90 min. […] After incubation, the cells were washed twice in 100 μl per well ice-cold binding buffer and lysed using 175 μl per well of 200 mM NaOH with 1% SDS for 30 min. The samples were analyzed by the Wizard Gamme Counter (PerkinElmer, Waltham, MA). Data was analyzed by comparing the counts measured from the ligand preincubated and non-preincubated cells.

T6 sequence (P43220 24-463): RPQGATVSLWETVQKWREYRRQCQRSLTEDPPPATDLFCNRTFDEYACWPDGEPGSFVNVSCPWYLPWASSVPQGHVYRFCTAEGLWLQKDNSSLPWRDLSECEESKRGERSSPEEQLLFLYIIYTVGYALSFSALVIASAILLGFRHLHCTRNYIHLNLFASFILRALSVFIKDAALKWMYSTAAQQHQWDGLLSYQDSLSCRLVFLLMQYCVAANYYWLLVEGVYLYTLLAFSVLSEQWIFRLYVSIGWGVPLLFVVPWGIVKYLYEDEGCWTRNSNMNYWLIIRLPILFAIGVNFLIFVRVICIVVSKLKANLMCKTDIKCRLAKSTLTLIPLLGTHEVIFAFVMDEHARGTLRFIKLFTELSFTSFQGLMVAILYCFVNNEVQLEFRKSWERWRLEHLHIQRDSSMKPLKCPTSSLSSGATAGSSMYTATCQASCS

Substance	Efficacy GIPR (human GIPR [1])	AUC ± SD (human SNAP-GIPR)	Emax ± SD (%) (human SNAP-GIPR)	rGIPR Efficacy (%) (rat GIPR)	rGLP-2R Efficacy (%) (rat GLP-2R)	AUC ± SD (human GIPR [2])	Emax ± SD (%) (human GIPR [2])	Efficacy GLP-2R (human GLP-2R)	Efficacy GLP-1R (human GLP-1R)	maGIPR Efficacy (%) (macaque GIPR)	maGIPR pEC50 (macaque GIPR)	formation marker P1NP, % of baseline ([3]; female rats, SC 4248.5 μg/kg, time 14:00 and 18:00, FIG. 2B)	resorption marker CTX, % of baseline ([3]; female rats, SC 4248.5 μg/kg, time point 14:00, p-value=0.08, FIG. 2A)	CTX AUC ([3]; rat, in vivo, sc)	GIPR expression at the cell surface following ligand preincubation (human GIPR [4])
H-Aib-DG-K(γGlu-C10)-FISDYST-Aib-LDNLAARDFINWLIQTKITK-OH [Compound no. 24]	113	113 ± 4	68 ± 3%	96.3%	76.3%	117 ± 31	57 ± 16%	90	–	–	–	–	–	–	–
H-Aib-DG-K(γGlu-C16 diacid)-FISDYST-Aib-LDNLAARDFINWLIQTKITK-OH [Compound no. 25]	93	57 ± 2	46 ± 2%	71.7%	65.0%	42 ± 15	23 ± 7%	88	–	–	–	–	–	–	–
H-Aib-DGTFISDY-K(yglu-C10)-T-Aib-LDNLAARDFINWLIQTKITGNDWKHNITQ-OH [Compound no. 54]	86	–	–	110.3%	108.0%	–	–	87	8	71.8%	7.7	–	–	–	–
H-Aib-DGTFISDY-K(γGlu-C10)-TILDKLAARDFIEWLIATKITK-OH [Compound no. 31]	89	0	–	85.0%	86.3%	0	–	90	6	–	–	–	–	–	–
H-Aib-DGTFISDY-K(γGlu-C16)-T-Aib-LDALAARDFIEWLIQTKITK-OH [Compound no. 33]	101	27 ± 2	25 ± 3%	98.7%	96.3%	23 ± 12	9 ± 5%	97	–	–	–	–	–	–	–
H-Aib-DGTFISDY-K(γGlu-C16)-TAib-LDNLAARDFINWLIQTKITKNDWKHNITQ-OH [Compound no. 37]	–	15 ± 4	24 ± 5%	91.0%	83.3%	0	15 ± 41%	97	–	–	–	–	–	–	–
H-Aib-DGTFISDY-K(γGlu-C16)-TILDNLAARDFINWLIQTKITK-OH [Compound no. 11]	115	19 ± 2	24 ± 6%	107.0%	104.0%	61 ± 14	41 ± 6%	–	11	92.5%	9.0	increase	reduced (ns) increase	tendency towards a reduction	–
YAEGTFISDYSIAMDKIHQQDFVNWLLAQKGKKNDWKHNITQ [hGIP, reference compound]	–	204 ± 3	–	–	–	223 ± 16	–	–	–	–	–	–	–	–	downregulation of the GIPR from the cell surface

Reference: patent publication US20250304643A1, “PEPTIDE DUAL AGONISTS OF GIPR AND GLP2R” (BAINAN BIOTECH APS, priority 2021, published 2025)
